Laboratory results published in a melting point compilation (Tetko et al.; mined from patent text by program, amines drawn as free bases though some values may be those of a salt).
Non-standard residues stand in square brackets, D forms with d. Residues, ends and D or L forms follow the SMILES beside them. pGlu = O=C1CC[CH](C(=O)O)N1

Compound	melting point [°C]
N#Cc1cncc(-c2ccc(OC[C@@H](N)Cc3ccccc3)cc2)c1Nc1cccc2[nH]ccc12	83 to 85
CC(=O)CN1C(=O)c2ccccc2C12OCCO2	91 to 93
CN(C)c1ccc(-c2nnc(-c3ccccc3)o2)cc1	135 to 140
CC(=O)OCCc1ccc(-c2csc(=O)s2)cc1	55 to 56
CC(Br)C(=O)NOCc1ccccc1 (configuration not stated)	75.3 to 77.4
CC(=O)N(N=Cc1c(Cl)cccc1Cl)c1nncn1N(C)C(C)=O	167 to 169
CN(C)CCSCc1c(CCN(C)C)[nH]c2ccccc12	52 to 54
CN1CC(CCCl)Oc2cc(Cl)ccc2C1=O (configuration not stated)	85 to 87
COC(=O)CCC(CCCCNS(=O)(=O)c1ccc(Cl)cc1)CCOc1cccnc1 (configuration not stated)	57 to 58
Cc1c(CO)ncnc1N1CCOCC1	66 to 68
Cc1ccc2c(c1)C(=O)N1CCN=C1N2N1CCOCC1	227 to 228
CC(C)c1nc(O)c([N+](=O)[O-])c(O)n1	300
CC(C)(C)NC(=O)[C@@H]1C[C@H](Cl)CN1C(=O)OC(C)(C)C	149 to 150
CC(C)(C)OC(=O)N1CCN(CC(O)CNc2ccc(CC#N)cc2)CC1 (configuration not stated)	86 to 87
C[C@@H](CO)CCn1c(C(=O)NCc2cc(C(F)(F)F)cc(C(F)(F)F)c2)c(-c2ccc(Cl)cc2)c2cccnc2c1=O	259 to 261
CNC(=S)C1=CC(C)(COC)Oc2ccc([N+](=O)[O-])cc21 (configuration not stated)	146 to 148
Clc1ccc(C(c2ccc(Cl)cc2)(c2nc[nH]n2)n2ccnc2)cc1	188 to 191
FC(F)(F)c1cc(CBr)c(C(F)(F)F)cc1CBr	80 to 81
CCc1nn(CC#N)c(CC)c1Oc1cc(Cl)cc(Cl)c1	70 to 72
CCCCCCCCSc1ccc(-c2ncc(CCCCC)cn2)cc1	43
C[Si](C)(C)CCOCn1c(-c2cnn(-c3c(Cl)cc(C(F)(F)F)cc3Cl)n2)nc([N+](=O)[O-])c1Br	126 to 128
CCOC(=O)C(=CNc1cccc(-c2ccncc2)c1)C(C)=O	107 to 108
Cn1ncc(C(=O)N2CCC2)c1C(=O)Nc1ccn2nc(N3CCCC3)nc2c1	> 250
CCOC(=O)c1cn(C2CC2)c2c(C)c(F)c(F)c(N)c2c1=O	182 to 186
COc1cc(-c2ccc(C(F)(F)F)cc2)nc(SC)n1	82 to 84
COc1nc2ccccc2nc1NC(=S)N1CCN(c2cc(F)cc(F)c2)CC1	280 to 281

Compound	melting point [°C]
CC1(C)COc2cc3ccccc3c(=O)n21	91 to 92
O=c1c2cccc3ncc(c(=O)n1CCCCCNS(=O)(=O)C(F)(F)F)n32	166 to 167
CCOc1cc2cc(C(=O)OC)c(C(=O)OC)c(-c3ccnc(Br)c3)c2cc1OC	203 to 204
CN1CCN(c2ccc(N)cc2C#N)CC1	45 to 46
CC(Oc1ncn(-c2ccc(Br)cc2)n1)C(=O)NC1CC1 (configuration not stated)	170 to 172
O=C(O)CCCC=Cc1nn(-c2ccc(Cl)cc2)c2c1CCC2	132 to 134
CCOC(=O)C1=C(N)N=C(N(C)C)C(C(=O)OCC)C1c1cccc([N+](=O)[O-])c1 (configuration not stated)	149
CCCSC(C(N)=O)c1cccc(C(=O)c2ccc(F)cc2)c1N (configuration not stated)	140 to 142
CNC(=O)[C@@H](NC(=O)[C@@H](CC(=O)OCc1ccccc1)n1ccc(-c2ccncc2)c1)C(C)(C)C	130 to 133
Cc1sc2cc(C3=NCC4(CCNCC4)S3)[nH]c2c1N(C)S(=O)(=O)c1cccs1	196
COCCOCC(=O)Nc1c([N+](=O)[O-])cnn1-c1c(Cl)cc(C(F)(F)F)cc1Cl	103 to 105
C[C@H](O)[C@@H](COc1ccc(Cl)c(Cl)c1)n1cnc(C(N)=O)c1	115 to 121
CCN(CC)C(=O)Cc1ccccc1OC	141
CS(=O)(=O)Nc1ccc(OCCCNC(=O)c2ccc(Br)cc2)cc1	208 to 209
CC(=O)OCC(=O)C1=CCC2C3CCC4=CC(=O)C=CC4(C)C3(F)C(OC(C)=O)CC12C (configuration not stated)	294 to 296
Fc1cc(F)c(COc2cccnc2NC(=S)Nc2ccc(Cl)cc2)c(F)c1	181 to 183
Cc1cc2c(cc1Br)N1CCc3cccc(c31)C(N1CCN(C)CC1)=N2	177
CCCc1cc2c(NCCc3ccccc3)ncnc2s1	110
OC1CCCc2ccc(OCc3ccc4ccccc4n3)cc21 (configuration not stated)	113 to 115
N#Cc1cnn2cccc2c1Nc1ccccc1	164
CC(C)(C)Nc1cc(Cl)nc(Cl)n1	192 to 193
COc1cc(C(S)CS)cc(OC)c1OC (configuration not stated)	72.5 to 73.5
CC(=O)Nc1ccc(-c2cc(C(=O)c3ccc(S(C)(=O)=O)cc3)sc2N2CCOCC2)cc1	177
COc1ccc(C(=O)C=Cc2ccc(N(C)C)cc2)c(OC)c1OC	88 to 89
O=C(O)c1cccc(-n2c(=O)c3c(Cc4ccccc4)n[nH]c3c3cccnc32)c1	300 to 305
OCc1nn(C(c2ccccc2)(c2ccccc2)c2ccccc2)c2ccccc12	192 to 193

Compound	melting point [°C]
Cc1cc(Cl)n2nc(S(=O)(=O)Nc3c(Cl)cccc3Cl)nc2n1	217 to 220
COC(COC1CC2C3CCC4=CC(=O)CCC4(C)C3(F)C(O)CC2(C)C1(O)C(=O)CO)OC (configuration not stated)	192 to 194
COC(=O)c1ccc(C(O)c2c(C)c3cc(C(F)(F)F)ccc3n2S(=O)(=O)c2cccc(C(C)(C)C)c2)cc1 (configuration not stated)	65
COc1ccc2cccc(Cl)c2c1	32 to 34
O=C(O)c1ccc(C=Cc2ccccc2)cc1	252
Cc1cccc(S(=O)(=O)C2(CC#Cc3ccc(Cl)cc3)SC(=O)NC2=O)n1 (configuration not stated)	104 to 106
COc1ccc(NC(=N)c2cccnc2)cc1	137 to 139
O=C(NN=CC=Cc1ccccc1)c1ccccc1	192 to 194
CN1CCC(OC2c3ccccc3CCn3cc(-c4ccccc4)nc32)CC1 (configuration not stated)	113
Cc1cc(C)cc(-c2nc(N)sc2-c2ccnc(OCc3ccccc3)c2)c1	141 to 143
Clc1ccc(Nc2nc3ccccc3c3[nH]c(C4CCCC4)nc23)cc1	189 to 190
CCOC(=O)COc1cccc2c1OCC2=O	89 to 90
CC(=O)Oc1cn(Cc2c(F)cccc2F)c2sc(-c3ccc([N+](=O)[O-])cc3)c(C)c2c1=O	216 to 217
OCc1cn(C(c2ccccc2)(c2ccccc2)c2ccccc2)nn1	200 to 201
O=c1cc(COC2CCCCO2)occ1OCCCCBr (configuration not stated)	71.5
C1=C2NCCN2C(c2ccccc2)c2ccccc2C1 (configuration not stated)	200 to 201
CCCCCCC(C)(C)c1cc(OCc2ccccc2)c2c(c1)OC(C)(C)CC2=O	52 to 52.5
CCCCOc1ccc2c3c([nH]c2c1)CC(NC(C)=O)CC3 (configuration not stated)	182 to 184
COC(=O)c1cocc1-n1c(OC)nn(C)c1=O	131 to 133
O=C1NC(=S)NC(=O)C1=Cc1cccc2ccccc12	280
COc1cc(C(=O)CSCC2CCCCC2)c(OC)cc1Cl	51 to 53
COc1ccc(-c2cc(=O)n(C)c(=O)n2CC(O)CNC(C)(C)C)cc1OC (configuration not stated)	123 to 125
CCC12CCC3C4=C(CCC3C1C=CC2=O)CC(OC)=CC4 (configuration not stated)	89 to 91
CC1=C(c2ccccc2)C(=O)c2ccccc2C1=O	235 to 236
CCc1ccc(C)c(NC(=O)C(C)(C)C)n1	72 to 75
COc1ccc(-c2cc(=Nc3c(C)cc(C)cc3C)n(C)c(N)n2)cc1OC	192 to 195

Compound	melting point [°C]
O=C(NC1CCCOC1)c1ccc2nonc2c1 (configuration not stated)	204 to 205
COC(=O)CCCc1cc2cc(Cl)ccc2n1S(=O)(=O)c1ccc2c(c1)OCCN2C	139 to 140
NC(=O)CC(NC(=O)C(CO)NC(=O)CNC(=O)CNC(=O)C1CCC(=O)N1)C(=O)NC(Cc1ccccc1)C(N)=O (configuration not stated) ([pGlu]GGSNF-NH2; configuration not given here)	218 to 221
COc1ccc2c(CCN3CC=C(c4c[nH]c5ccccc45)CC3)coc2c1	54
CCCCN(CCCC)c1ccc(C=CC=CC2=C(C#N)C(=C(C#N)C#N)OC2(C)C)c(OC)c1	181 to 184
O=C(O)CCc1cccc(-c2nc(=O)c3ccc(C(F)(F)F)cc3s2)n1	193
O=C1c2ccc(-n3ncc4ccccc43)cc2CCN1CCN1CCCC1	185 to 186
CCOC(=O)C1=C(COCc2nnnn2CCN2CCN(C(=O)NC)CC2)NC(C)=C(C(=O)OC)C1c1cccc(Cl)c1Cl (configuration not stated)	95 to 96
Cc1nc(-c2ccccc2)c(CC(C)C(=O)O)o1 (configuration not stated)	109 to 110
CC(=O)Nc1nc(CCc2ccc(CBr)cc2)cs1	148 to 150
NS(=O)(=O)c1ccc(-c2cnn(-c3ccc(F)cc3)c(=O)c2-c2ccc(F)cc2)cc1	213 to 216
CN(Cc1cc(C(F)(F)F)cc(C(F)(F)F)c1)C(=O)c1c(-c2ccc(F)cc2)c2ccc(=O)n(C)c2c(=O)n1C	210 to 212
COP(=S)(OC)SCc1nc2sccn2c(=O)c1Cl	125 to 130
COc1ccc2cc(CN(C)C(=O)c3oc4ccccc4c3CCc3ccccc3)ccc2c1Br	54 to 57
Cc1ccc(-n2nc(C(F)F)cc2-c2ccc(S(C)(=O)=O)c(F)c2)cc1Cl	146 to 147
CCN(CC)CCNC(=O)c1cc(NS(C)(=O)=O)c(Cl)cc1OC	123 to 124
FC(F)(F)c1nc2ccnc(Cl)n2n1	47 to 48
OC(C#CCN1CCC(O)(c2ccc(Cl)cc2)CC1)c1ccc(F)cc1 (configuration not stated)	145 to 146
COC(=O)c1nc2c(c(-c3ccccc3)nn2-c2ccccc2)c(N)c1C(=O)OC	277 to 279
Cc1c(SCCCCSCc2ccncc2)ccnc1CNc1cnc2ccccc2c1	110 to 113
CCCCCCCCCCCCCc1c[nH]c(C=O)c1	61 to 64
COc1cc(C(N)=O)c([N+](=O)[O-])cc1OC	197
O=CC=NNc1c(Cl)cc(C(F)(F)F)cc1Cl	131 to 133
NS(=O)(=O)c1cc2nc[nH]c2cc1Cl	244
